{"source": "patent US12157746B2", "about": "“Tetrahydro-1H-pyrazino[2,1-a]isoindolylquinoline compounds for the treatment of autoimmune disease” (F. HOFFMANN-LA ROCHE AG, priority 2018, dated 2024)"}
{"molecular_target": "T1, human TLR9 (Homo sapiens, UniProt Q9NR96)", "T1 sequence (Q9NR96 26-1032)": "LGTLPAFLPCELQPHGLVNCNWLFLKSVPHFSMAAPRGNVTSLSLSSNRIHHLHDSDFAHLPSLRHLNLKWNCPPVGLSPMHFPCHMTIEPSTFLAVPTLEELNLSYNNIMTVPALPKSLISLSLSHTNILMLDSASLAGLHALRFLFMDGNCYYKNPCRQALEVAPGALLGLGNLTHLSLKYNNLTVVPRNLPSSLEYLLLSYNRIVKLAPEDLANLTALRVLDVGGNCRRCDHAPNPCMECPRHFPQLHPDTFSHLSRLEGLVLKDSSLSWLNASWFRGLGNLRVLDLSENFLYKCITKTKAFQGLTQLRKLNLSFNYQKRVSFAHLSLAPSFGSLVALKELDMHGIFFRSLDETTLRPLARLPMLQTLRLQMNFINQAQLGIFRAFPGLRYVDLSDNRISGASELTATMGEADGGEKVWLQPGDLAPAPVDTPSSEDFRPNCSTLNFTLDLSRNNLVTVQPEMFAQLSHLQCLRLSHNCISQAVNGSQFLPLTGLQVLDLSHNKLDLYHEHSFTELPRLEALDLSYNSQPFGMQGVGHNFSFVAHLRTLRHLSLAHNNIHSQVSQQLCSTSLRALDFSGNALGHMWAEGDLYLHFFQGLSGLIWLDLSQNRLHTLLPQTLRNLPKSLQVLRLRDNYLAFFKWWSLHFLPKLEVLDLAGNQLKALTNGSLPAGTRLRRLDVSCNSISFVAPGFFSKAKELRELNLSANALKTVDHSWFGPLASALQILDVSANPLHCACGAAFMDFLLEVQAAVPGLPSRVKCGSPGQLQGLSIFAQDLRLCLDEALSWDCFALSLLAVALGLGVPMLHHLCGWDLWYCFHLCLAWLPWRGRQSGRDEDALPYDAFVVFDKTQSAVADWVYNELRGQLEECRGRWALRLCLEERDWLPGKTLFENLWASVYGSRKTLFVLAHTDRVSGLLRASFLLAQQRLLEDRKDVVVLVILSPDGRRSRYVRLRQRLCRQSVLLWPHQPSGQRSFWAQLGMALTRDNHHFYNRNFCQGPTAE", "assay": "HEK293-Blue-hTLR-9 cells assay", "assay_type": "cell-based", "conditions": "HEK293-Blue-hTLR9 cells, ODN2006 stimulation, 20 hrs, SEAP reporter; read-out: HEK/hTLR9 IC50", "outline": "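Antagonist mode in HEK293-Blue hTLR9 reporter cells (SEAP under NF-κB/AP-1 sites), stimulated with ODN2006 added from a 20 uM solution. Serially diluted compound (1% DMSO final) was incubated 20 hrs at 37° C. Supernatant SEAP was developed with QUANTI-Blue for 2 h at 37° C and read at 620˜655 nm.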", "units": {"IC50": "µM"}}
{"smiles": "[2H]c1ccc2c(N3C[C@@H](C)N4Cc5cc(N6CC(C)(N)C6)ccc5[C@H]4C3)ccc(C#N)c2n1", "note": "[Example 92, 5-[(4R,10bS)-8-(3-amino-3-methyl-azetidin-1-yl)-4-methyl-3,4,6,10b-tetrahydro-1H-pyrazino[2,1-a]isoindol-2-yl]-2-deuterio-quinoline-8-carbonitrile]", "IC50": 0.148}
{"smiles": "[2H]c1ccc2c(N3C[C@@H](C)N4Cc5cc(N6CC7CNCC(C6)O7)ccc5[C@H]4C3)ccc(C#N)c2n1", "note": "[Example 93, 5-[(4R,10bS)-4-methyl-8-(9-oxa-3,7-diazabicyclo[3.3.1]nonan-3-yl)-3,4,6,10b-tetrahydro-1H-pyrazino[2,1-a]isoindol-2-yl]-2-deuterio-quinoline-8-carbonitrile]", "IC50": 0.0699}
{"smiles": "CO[C@@H]1CN(c2ccc3c(c2)CN2[C@H](C)CN(c4ccc(C#N)n5nccc45)C[C@H]32)C[C@H]1N", "note": "[Example 94, 4-[(4R,10bS)-8-[(3R,4R)-3-amino-4-methoxy-pyrrolidin-1-yl]-4-methyl-3,4,6,10b-tetrahydro-1H-pyrazino[2,1-a]isoindol-2-yl]pyrazolo[1,5-a]pyridine-7-carbonitrile]", "IC50": 0.149}
{"smiles": "CO[C@H]1CN(c2ccc3c(c2)CN2[C@H](C)CN(c4ccc(C#N)n5nccc45)C[C@H]32)C[C@@H]1N", "note": "[Example 95, 4-[(4R,10bS)-8-[(3S,4S)-3-amino-4-methoxy-pyrrolidin-1-yl]-4-methyl-3,4,6,10b-tetrahydro-1H-pyrazino[2,1-a]isoindol-2-yl]pyrazolo[1,5-a]pyridine-7-carbonitrile]", "IC50": 0.215}
{"smiles": "C[C@@H]1CN(c2ccc(C#N)n3nccc23)C[C@@H]2c3ccc(N4CC[C@@H](N)C4)cc3CN12", "note": "[Example 96, 4-[(4R,10bS)-8-[(3R)-3-aminopyrrolidin-1-yl]-4-methyl-3,4,6,10b-tetrahydro-1H-pyrazino[2,1-a]isoindol-2-yl]pyrazolo[1,5-a]pyridine-7-carbonitrile]", "IC50": 0.193}
{"smiles": "C[C@@H]1CN(c2ccc3c(c2)CN2[C@H](C)CN(c4ccc(C#N)n5nccc45)C[C@H]32)CCN1", "note": "[Example 97, 4-[(4R,10bS)-4-methyl-8-[(3R)-3-methylpiperazin-1-yl]-3,4,6,10b-tetrahydro-1H-pyrazino[2,1-a]isoindol-2-yl]pyrazolo[1,5-a]pyridine-7-carbonitrile]", "IC50": 0.161}
{"smiles": "C[C@@H]1CN(c2ccc(C#N)n3nccc23)C[C@@H]2c3ccc(N[C@H]4CNC[C@H]4F)cc3CN12", "note": "[Example 98, 4-[(4R,10bS)-8-[[(3S,4R)-4-fluoropyrrolidin-3-yl]amino]-4-methyl-3,4,6,10b-tetrahydro-1H-pyrazino[2,1-a]isoindol-2-yl]pyrazolo[1,5-a]pyridine-7-carbonitrile]", "IC50": 0.197}
{"smiles": "C[C@@H]1CN(c2ccc(C#N)n3nccc23)C[C@@H]2c3ccc(N4CCOC[C@H](N)C4)cc3CN12", "note": "[Example 101, 4-[(4R,10bS)-8-[(6R)-6-amino-1,4-oxazepan-4-yl]-4-methyl-3,4,6,10b-tetrahydro-1H-pyrazino[2,1-a]isoindol-2-yl]pyrazolo[1,5-a]pyridine-7-carbonitrile]", "IC50": 0.165}
{"smiles": "C[C@@H]1CN(c2ccc(C#N)n3nccc23)C[C@@H]2c3ccc(N4CC[C@@](C)(N)C4)cc3CN12", "note": "[Example 103, 4-[(4R,10bS)-8-[(3R)-3-amino-3-methyl-pyrrolidin-1-yl]-4-methyl-3,4,6,10b-tetrahydro-1H-pyrazino[2,1-a]isoindol-2-yl]pyrazolo[1,5-a]pyridine-7-carbonitrile]", "IC50": 0.142}
{"smiles": "CO[C@@H]1CN(c2ccc3c(c2)CN2[C@H](C)CN(c4ccc(C#N)n5nccc45)C[C@H]32)CC[C@H]1N", "note": "[Example 104, 4-[(4R,10bS)-8-[(3R,4R)-4-amino-3-methoxy-1-piperidyl]-4-methyl-3,4,6,10b-tetrahydro-1H-pyrazino[2,1-a]isoindol-2-yl]pyrazolo[1,5-a]pyridine-7-carbonitrile]", "IC50": 0.0903}
{"smiles": "CO[C@@H]1CN(c2ccc3c(c2)CN2[C@H](C)CN(c4ccc(C#N)n5nccc45)C[C@H]32)CC[C@@H]1N", "note": "[Example 105, 4-[(4R,10bS)-8-[(3R,4S)-4-amino-3-methoxy-1-piperidyl]-4-methyl-3,4,6,10b-tetrahydro-1H-pyrazino[2,1-a]isoindol-2-yl]pyrazolo[1,5-a]pyridine-7-carbonitrile]", "IC50": 0.163}
{"smiles": "CO[C@H]1CCN(c2ccc3c(c2)CN2[C@H](C)CN(c4ccc(C#N)n5nccc45)C[C@H]32)C[C@H]1N", "note": "[Example 106, 4-[(4R,10bS)-8-[(3R,4S)-3-amino-4-methoxy-1-piperidyl]-4-methyl-3,4,6,10b-tetrahydro-1H-pyrazino[2,1-a]isoindol-2-yl]pyrazolo[1,5-a]pyridine-7-carbonitrile]", "IC50": 0.135}
{"smiles": "C[C@@H]1CN(c2ccc(C#N)n3nccc23)C[C@@H]2c3ccc(N4CC5CNCC(C4)O5)cc3CN12", "note": "[Example 107, 4-[(4R,10bS)-4-methyl-8-(9-oxa-3,7-diazabicyclo[3.3.1]nonan-3-yl)-3,4,6,10b-tetrahydro-1H-pyrazino[2,1-a]isoindol-2-yl]pyrazolo[1,5-a]pyridine-7-carbonitrile]", "IC50": 0.0679}
{"smiles": "C[C@@H]1CN(c2ccc(C#N)n3nccc23)C[C@@H]2c3ccc(N4C[C@@H](N)[C@](C)(O)C4)cc3CN12", "note": "[Example 108, 4-[(4R,10bS)-8-[(3R,4R)-4-amino-3-hydroxy-3-methyl-pyrrolidin-1-yl]-4-methyl-3,4,6,10b-tetrahydro-1H-pyrazino[2,1-a]isoindol-2-yl]pyrazolo[1,5-a]pyridine-7-carbonitrile]", "IC50": 0.126}
{"smiles": "C[C@@H]1CN(c2ccc(C#N)n3nccc23)C[C@@H]2c3ccc(N4C[C@H](N)[C@@](C)(O)C4)cc3CN12", "note": "[Example 109, 4-[(4R,10bS)-8-[(3S,4S)-4-amino-3-hydroxy-3-methyl-pyrrolidin-1-yl]-4-methyl-3,4,6,10b-tetrahydro-1H-pyrazino[2,1-a]isoindol-2-yl]pyrazolo[1,5-a]pyridine-7-carbonitrile]", "IC50": 0.16}
{"smiles": "C[C@@H]1CN(c2ccc(C#N)n3nccc23)C[C@@H]2c3ccc(N4C[C@@H](N)[C@H](O)C4)cc3CN12", "note": "[Example 110, 4-[(4R,10bS)-8-[(3R,4R)-3-amino-4-hydroxy-pyrrolidin-1-yl]-4-methyl-3,4,6,10b-tetrahydro-1H-pyrazino[2,1-a]isoindol-2-yl]pyrazolo[1,5-a]pyridine-7-carbonitrile]", "IC50": 0.053}
{"smiles": "C[C@@H]1CN(c2ccc(C#N)n3nccc23)C[C@@H]2c3ccc(N4C[C@H](N)[C@@H](O)C4)cc3CN12", "note": "[Example 111, 4-[(4R,10bS)-8-[(3S,4S)-3-amino-4-hydroxy-pyrrolidin-1-yl]-4-methyl-3,4,6,10b-tetrahydro-1H-pyrazino[2,1-a]isoindol-2-yl]pyrazolo[1,5-a]pyridine-7-carbonitrile]", "IC50": 0.038}
{"smiles": "C[C@@H]1CN(c2ccc(C#N)n3ncc(F)c23)C[C@@H]2c3ccc(N4C[C@H](N)[C@@](C)(O)C4)cc3CN12", "note": "[Example 112, 4-[(4R,10bS)-8-[(3S,4S)-4-amino-3-hydroxy-3-methyl-pyrrolidin-1-yl]-4-methyl-3,4,6,10b-tetrahydro-1H-pyrazino[2,1-a]isoindol-2-yl]-3-fluoro-pyrazolo[1,5-a]pyridine-7-carbonitrile]", "IC50": 0.227}
{"smiles": "CO[C@@H]1CN(c2ccc3c(c2)CN2[C@H](C)CN(c4ccc(C#N)n5ncc(F)c45)C[C@H]32)C[C@H]1N", "note": "[Example 113, 4-[(4R,10bS)-8-[(3R,4R)-3-amino-4-methoxy-pyrrolidin-1-yl]-4-methyl-3,4,6,10b-tetrahydro-1H-pyrazino[2,1-a]isoindol-2-yl]-3-fluoro-pyrazolo[1,5-a]pyridine-7-carbonitrile]", "IC50": 0.135}
